From publication PMC11550293, “Biochemical characterization of a recombinant laccase from Halalkalibacterium halodurans C-125 and its application in the biotransformation of organic compounds” (Biotechnology Letters, 2024)

Assays:
rLac-HhC125 = biological target: T1, rLac-HhC125 (Halalkalibacterium halodurans, UniProt Q9KB49); assay: biochemical; settings: read-out: Residual activity (%) ± SD (0 min)
T1 construct: gene BH2082

purified protein = substrate: COc1cc(C=NN=Cc2cc(OC)c(O)c(OC)c2)cc(OC)c1O; assay: purified protein; format: biochemical, Halalkalibacterium halodurans; settings: 100 mM Tris-HCl pH 8, 2 mM CuSO4, enzyme pre-treated 50 °C 20 min, partially purified enzyme

Molecule	remaining activity at 1000 µM (rLac-HhC125)	Km (purified protein)
NC(=S)Nc1ccccc1 [Phenylthiourea]	3.9 ± 3.8%	
rLac-HhC125 (Halalkalibacterium halodurans C-125) (protein, native signal peptide removed (forward primer encodes MDDHSEMD...), pET28-a(+) BamHI/HindIII, E. coli BL21(DE3); partially purified by SEC; theoretical monomer 54 kDa; monomer and possibly dimer) DDHSEMDHGNNQQDEQNEGTFEDGKKVFNLEVTETHWMFNDEVMMDAWTYNGTLPGQEIRVQEGDEVVINVKNSLNVPTALHLHGFPVPNEMDGVPGVTQNAIMPGEEFTYEYQANVPGTYWYHSHQDGATQVDRGLYGVFIVEPVDPESYDTDVAIVIDEFASMGMGMGMDHSTMDHGDMEHDGNDDMSHSEMMNEMYDTMVINGKADPQIESINVVEGNRVKLRFVNAGLFTQVVSIPEHSFKITHYDGQPVNEPDVLQDTAFRIAPAERYDLEIIMDNPGAWGIQVFAEENQERLQALIPLVYEEYEDEELQTVDSISSFFDLTTYGIPKELDIGDITKEYDMLLGSDDGGDTFTINGKKFPNHEIYDVEEGDMVKFTIINDTDFDHPMHLHGDFFHVISKGGKAIQGSPVLKDTLNVRPGETYEIVFEAKNPGNWMFHCHEFHHASGGMVAEIHYEGFELPFTPDPNIPNMPE		2.48 µM
